The source made the active and inactive calls. The calls are words filed in the database; no cut-off is given here.
How the values were obtained:
[1] = target: Mast/stem cell growth factor receptor Kit (Homo sapiens, UniProt P10721); assay: Inhibition of recombinant human His-tagged c-kit cytoplasmic domain (544 to 976 residues) expressed in baculovirus expression system using […] as substrate measured after 1 hr by FRET-based Z'-Lyte assay
[2] = target: T1, Epithelial discoidin domain-containing receptor 1 (Homo sapiens, UniProt Q08345); assay: Inhibition of recombinant human GST-tagged DDR1 catalytic domain expressed in baculovirus expression system using Fluorescein-Poly GAT as substrate measured after 1 hr by TR-FRET assay
T1 sequence (Q08345 whole entry, the tested form may be a part): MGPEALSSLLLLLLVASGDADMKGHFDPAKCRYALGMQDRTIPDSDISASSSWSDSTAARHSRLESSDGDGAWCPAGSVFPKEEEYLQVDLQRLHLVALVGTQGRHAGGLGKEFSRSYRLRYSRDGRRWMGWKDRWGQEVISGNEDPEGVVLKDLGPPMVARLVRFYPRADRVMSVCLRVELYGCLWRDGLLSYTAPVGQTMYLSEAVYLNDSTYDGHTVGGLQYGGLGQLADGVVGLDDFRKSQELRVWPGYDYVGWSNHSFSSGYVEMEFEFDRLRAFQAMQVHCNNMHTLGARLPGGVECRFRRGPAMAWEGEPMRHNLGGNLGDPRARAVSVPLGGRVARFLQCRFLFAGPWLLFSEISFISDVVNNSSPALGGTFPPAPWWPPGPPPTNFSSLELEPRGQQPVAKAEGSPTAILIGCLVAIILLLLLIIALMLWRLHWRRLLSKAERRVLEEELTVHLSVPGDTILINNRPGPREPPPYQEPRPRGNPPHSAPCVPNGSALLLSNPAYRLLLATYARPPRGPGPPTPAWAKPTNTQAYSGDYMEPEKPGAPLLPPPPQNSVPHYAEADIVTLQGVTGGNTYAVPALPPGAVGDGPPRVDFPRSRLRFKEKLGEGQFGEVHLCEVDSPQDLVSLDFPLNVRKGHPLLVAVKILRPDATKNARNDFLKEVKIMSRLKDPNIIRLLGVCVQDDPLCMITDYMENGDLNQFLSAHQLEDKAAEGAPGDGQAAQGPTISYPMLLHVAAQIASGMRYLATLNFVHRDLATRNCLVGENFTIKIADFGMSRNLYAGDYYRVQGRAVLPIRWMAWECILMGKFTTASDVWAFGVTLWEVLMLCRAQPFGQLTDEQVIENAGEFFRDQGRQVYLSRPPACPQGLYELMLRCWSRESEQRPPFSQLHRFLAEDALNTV

Bcr/Abl fusion protein = Bcr/Abl fusion protein (Homo sapiens, UniProt P00519); assay: Inhibition of recombinant human full length His-tagged Bcr-Abl fusion protein cytoplasmic domain expressed in baculovirus expression system using tyrosine-2 as substrate measured after 1 hr by FRET-based Z'-Lyte assay
Bcr/Abl fusion protein, sequence (P00519 whole entry, the tested form may be a part): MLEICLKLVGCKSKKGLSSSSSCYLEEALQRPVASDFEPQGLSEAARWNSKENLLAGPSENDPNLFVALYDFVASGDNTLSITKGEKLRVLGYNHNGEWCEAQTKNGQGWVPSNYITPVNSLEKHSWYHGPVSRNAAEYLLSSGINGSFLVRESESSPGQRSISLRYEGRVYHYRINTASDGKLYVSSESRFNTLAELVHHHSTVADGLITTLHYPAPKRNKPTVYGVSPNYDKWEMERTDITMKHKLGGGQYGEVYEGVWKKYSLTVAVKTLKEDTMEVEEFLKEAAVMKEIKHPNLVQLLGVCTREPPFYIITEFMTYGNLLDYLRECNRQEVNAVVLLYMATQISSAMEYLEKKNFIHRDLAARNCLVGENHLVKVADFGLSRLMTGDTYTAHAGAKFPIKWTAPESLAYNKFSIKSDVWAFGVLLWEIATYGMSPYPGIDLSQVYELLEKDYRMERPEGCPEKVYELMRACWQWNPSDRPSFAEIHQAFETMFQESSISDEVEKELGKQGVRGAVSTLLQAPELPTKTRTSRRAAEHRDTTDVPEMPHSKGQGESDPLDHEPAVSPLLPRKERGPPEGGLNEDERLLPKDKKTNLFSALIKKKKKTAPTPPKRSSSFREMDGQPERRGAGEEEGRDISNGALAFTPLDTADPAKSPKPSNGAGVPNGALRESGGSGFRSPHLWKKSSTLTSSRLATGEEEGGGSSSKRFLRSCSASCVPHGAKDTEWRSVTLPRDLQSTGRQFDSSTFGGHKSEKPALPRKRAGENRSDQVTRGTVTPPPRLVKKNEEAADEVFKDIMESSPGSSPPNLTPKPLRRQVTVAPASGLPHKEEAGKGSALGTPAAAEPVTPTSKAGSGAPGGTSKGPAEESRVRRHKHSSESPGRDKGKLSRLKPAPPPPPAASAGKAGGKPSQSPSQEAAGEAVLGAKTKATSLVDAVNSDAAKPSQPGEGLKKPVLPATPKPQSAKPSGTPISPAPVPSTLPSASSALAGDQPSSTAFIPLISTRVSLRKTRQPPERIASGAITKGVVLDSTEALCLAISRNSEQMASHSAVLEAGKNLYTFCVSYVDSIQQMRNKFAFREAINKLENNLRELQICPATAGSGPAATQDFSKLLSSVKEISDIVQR
Bcr/Abl fusion protein, sequence (P11274 whole entry, further chain, the tested form may be a part): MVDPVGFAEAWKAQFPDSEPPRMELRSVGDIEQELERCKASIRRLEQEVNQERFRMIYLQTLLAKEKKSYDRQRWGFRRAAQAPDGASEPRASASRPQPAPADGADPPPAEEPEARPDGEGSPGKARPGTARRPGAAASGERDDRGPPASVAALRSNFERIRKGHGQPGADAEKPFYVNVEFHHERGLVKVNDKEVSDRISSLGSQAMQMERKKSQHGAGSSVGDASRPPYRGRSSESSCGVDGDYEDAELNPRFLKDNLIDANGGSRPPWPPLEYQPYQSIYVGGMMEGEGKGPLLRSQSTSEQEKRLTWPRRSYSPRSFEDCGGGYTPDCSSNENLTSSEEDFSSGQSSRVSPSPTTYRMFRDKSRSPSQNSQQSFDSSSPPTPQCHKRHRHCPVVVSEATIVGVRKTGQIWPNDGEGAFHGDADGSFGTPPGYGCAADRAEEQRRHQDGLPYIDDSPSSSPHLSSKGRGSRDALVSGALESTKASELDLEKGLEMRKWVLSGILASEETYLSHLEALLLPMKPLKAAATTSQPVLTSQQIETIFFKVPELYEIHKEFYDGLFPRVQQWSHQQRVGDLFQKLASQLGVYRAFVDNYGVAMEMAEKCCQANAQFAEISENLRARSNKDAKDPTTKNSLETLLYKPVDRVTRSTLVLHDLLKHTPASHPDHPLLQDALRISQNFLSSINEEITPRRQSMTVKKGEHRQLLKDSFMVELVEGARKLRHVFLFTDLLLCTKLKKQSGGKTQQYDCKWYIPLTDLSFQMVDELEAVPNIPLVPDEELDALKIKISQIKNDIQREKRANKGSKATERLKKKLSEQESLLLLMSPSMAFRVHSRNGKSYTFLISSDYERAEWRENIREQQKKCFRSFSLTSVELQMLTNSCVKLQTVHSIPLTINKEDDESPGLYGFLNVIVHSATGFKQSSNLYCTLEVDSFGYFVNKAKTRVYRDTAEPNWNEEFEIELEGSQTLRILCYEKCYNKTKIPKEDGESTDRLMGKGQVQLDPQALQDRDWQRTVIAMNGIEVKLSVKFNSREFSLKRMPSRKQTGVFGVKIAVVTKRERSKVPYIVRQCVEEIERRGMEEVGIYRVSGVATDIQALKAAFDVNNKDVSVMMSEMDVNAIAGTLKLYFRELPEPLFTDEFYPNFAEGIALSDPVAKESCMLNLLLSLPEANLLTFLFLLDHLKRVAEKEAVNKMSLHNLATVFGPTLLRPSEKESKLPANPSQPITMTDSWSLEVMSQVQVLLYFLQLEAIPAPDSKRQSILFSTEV

[3] = target: T2, Discoidin domain-containing receptor 2 (Homo sapiens, UniProt Q16832); assay: Inhibition of recombinant human GST-tagged DDR2 cytoplasmic domain expressed in baculovirus expression system using Fluorescein-Poly GAT as substrate measured after 1 hr by TR-FRET assay
T2 sequence (Q16832 whole entry): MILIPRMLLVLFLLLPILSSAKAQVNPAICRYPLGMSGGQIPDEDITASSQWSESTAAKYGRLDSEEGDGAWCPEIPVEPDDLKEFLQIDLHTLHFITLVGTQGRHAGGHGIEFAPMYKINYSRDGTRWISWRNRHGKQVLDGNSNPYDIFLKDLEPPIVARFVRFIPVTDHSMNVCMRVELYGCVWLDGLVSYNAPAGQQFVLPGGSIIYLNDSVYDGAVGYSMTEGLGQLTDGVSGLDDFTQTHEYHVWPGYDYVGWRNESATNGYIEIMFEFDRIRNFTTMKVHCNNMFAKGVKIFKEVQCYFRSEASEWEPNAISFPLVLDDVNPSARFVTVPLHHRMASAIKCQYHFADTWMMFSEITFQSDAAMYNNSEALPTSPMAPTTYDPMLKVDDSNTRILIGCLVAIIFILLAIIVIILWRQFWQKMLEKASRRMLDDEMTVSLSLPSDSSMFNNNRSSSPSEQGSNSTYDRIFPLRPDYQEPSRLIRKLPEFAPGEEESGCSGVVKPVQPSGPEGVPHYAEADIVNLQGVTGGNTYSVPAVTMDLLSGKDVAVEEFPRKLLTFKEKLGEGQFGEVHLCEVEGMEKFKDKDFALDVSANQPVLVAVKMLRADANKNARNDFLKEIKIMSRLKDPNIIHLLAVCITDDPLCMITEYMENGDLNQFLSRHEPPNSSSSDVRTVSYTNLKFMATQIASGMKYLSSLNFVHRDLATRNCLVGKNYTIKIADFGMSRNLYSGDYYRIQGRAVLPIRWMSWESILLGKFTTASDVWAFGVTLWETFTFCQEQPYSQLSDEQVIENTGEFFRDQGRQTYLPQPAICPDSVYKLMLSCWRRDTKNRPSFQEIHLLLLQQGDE

Mus musculus [4] = assay: Anti-inflammatory activity in LPS-induced C57BL/6 mouse acute lung injury model assessed as reduction in lung wet/dry ratio at 20 to 40 mg/kg, po bid pretreated for 7 days followed by LPS challenge measured after 6 hrs; assay type: functional, organism-based
[5] = target: NT-3 growth factor receptor (Homo sapiens) (UniProt Q16288); assay: Binding affinity to human DNA-tagged TrkC measured after 1 hr by quantitative PCR analysis
NT-3 growth factor receptor (Homo sapiens), sequence (Q16288 32-839 limits assumed): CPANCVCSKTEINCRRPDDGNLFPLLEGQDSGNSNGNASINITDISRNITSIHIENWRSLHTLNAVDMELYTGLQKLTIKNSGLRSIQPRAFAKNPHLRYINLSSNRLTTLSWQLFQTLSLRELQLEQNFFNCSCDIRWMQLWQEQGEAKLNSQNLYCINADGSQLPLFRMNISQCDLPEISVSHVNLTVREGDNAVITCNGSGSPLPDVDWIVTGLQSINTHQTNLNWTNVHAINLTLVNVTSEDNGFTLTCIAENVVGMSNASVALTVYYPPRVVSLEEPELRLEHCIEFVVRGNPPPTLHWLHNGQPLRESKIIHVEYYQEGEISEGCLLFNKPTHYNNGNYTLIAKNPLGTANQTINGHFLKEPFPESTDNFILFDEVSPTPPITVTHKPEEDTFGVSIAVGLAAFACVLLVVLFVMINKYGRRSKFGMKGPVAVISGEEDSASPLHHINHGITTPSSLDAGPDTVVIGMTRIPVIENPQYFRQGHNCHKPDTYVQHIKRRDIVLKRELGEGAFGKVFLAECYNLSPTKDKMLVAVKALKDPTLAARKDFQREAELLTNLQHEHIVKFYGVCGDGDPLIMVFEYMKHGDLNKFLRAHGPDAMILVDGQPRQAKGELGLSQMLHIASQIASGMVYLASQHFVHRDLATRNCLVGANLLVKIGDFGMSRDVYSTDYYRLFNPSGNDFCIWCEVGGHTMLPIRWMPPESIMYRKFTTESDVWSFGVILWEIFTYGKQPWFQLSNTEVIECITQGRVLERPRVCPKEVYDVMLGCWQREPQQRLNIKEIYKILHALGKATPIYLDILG

Mus musculus [6] = assay: Anti-inflammatory activity in LPS-induced C57BL/6 mouse acute lung injury model assessed as reduction in pathological changes at 20 to 40 mg/kg, po bid pretreated for 7 days followed LPS challenge measured after 6 hrs hematoxylin and eosin staining based microscopy; assay type: functional, organism-based
[7] = target: T1, Epithelial discoidin domain-containing receptor 1; assay: Binding affinity to human DNA-tagged DDR1 expressed in bacterial expression system measured after 1 hr by quantitative PCR analysis
Peritoneal macrophage [8] = assay: Anti-inflammatory activity in C57BL/6 mouse primary peritoneal macrophages assessed as inhibition of LPS-induced TNF-alpha production by ELISA method; assay type: functional, cell-based
Mus musculus [9] = assay: Anti-inflammatory activity in po dosed LPS-induced C57BL/6 mouse acute lung injury model assessed as reduction in total number of cells in bronchoalveolar lavage fluid pretreated for 7 days followed by LPS challenge measured after 6 hrs by cell counter; assay type: functional, organism-based
Mus musculus [10] = assay: Anti-inflammatory activity in po dosed LPS-induced C57BL/6 mouse acute lung injury model assessed as reduction in total protein concentration in bronchoalveolar lavage fluid pretreated for 7 days followed by LPS challenge measured after 6 hrs; assay type: functional, organism-based
[11] = target: BDNF/NT-3 growth factors receptor (Homo sapiens) (UniProt Q16620); assay: Binding affinity to human DNA-tagged TrkB measured after 1 hr by quantitative PCR analysis
[12] = target: T1, Epithelial discoidin domain-containing receptor 1; settings: 1 uM
Peritoneal macrophage [13] = assay: Anti-inflammatory activity in C57BL/6 mouse primary peritoneal macrophages assessed as inhibition of LPS-induced IL-6 production by ELISA method; assay type: functional, cell-based

Mast/stem cell growth factor receptor Kit, sequence (P10721 whole entry, the tested form may be a part): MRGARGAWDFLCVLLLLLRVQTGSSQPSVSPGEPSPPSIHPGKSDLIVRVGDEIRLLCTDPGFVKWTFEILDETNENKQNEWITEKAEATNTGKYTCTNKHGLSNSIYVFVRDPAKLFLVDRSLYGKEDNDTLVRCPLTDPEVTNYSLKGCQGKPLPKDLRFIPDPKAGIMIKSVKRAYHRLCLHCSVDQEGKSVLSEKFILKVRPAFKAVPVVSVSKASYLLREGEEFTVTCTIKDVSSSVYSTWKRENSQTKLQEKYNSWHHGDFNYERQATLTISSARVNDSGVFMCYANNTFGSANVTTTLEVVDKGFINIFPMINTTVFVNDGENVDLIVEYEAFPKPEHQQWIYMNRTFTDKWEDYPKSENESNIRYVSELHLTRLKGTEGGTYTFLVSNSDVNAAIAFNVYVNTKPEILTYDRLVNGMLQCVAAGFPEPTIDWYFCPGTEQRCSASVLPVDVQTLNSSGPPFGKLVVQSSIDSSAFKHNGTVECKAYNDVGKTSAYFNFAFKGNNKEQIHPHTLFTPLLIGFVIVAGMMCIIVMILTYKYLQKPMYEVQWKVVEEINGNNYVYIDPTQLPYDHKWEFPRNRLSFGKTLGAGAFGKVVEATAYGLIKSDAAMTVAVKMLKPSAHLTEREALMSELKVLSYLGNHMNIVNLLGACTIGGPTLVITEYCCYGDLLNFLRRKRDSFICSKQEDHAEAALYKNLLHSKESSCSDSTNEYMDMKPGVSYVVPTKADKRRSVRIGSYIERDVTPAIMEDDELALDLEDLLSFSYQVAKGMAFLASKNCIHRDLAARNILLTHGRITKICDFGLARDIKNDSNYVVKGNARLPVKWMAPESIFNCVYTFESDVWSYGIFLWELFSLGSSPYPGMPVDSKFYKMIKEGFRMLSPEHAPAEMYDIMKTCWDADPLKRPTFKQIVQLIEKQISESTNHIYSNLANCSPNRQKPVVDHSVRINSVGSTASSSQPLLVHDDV

| Compound | IC50 [1] [µM] | IC50 [2] [µM] | IC50 (Bcr/Abl fusion protein) [µM] | IC50 [3] [µM] | also measured |
| --- | --- | --- | --- | --- | --- |
| CN1CCN(Cc2cc(NC(=O)c3ccc4c(c3)CN(c3ccncn3)CC4)cc(C(F)(F)F)c2)CC1 | > 10 | > 10 | > 10 | > 10 | – |
| CC1CN(c2cncnc2)Cc2cc(C(=O)Nc3cc(N4CCN(C)CC4)cc(C(F)(F)F)c3)ccc21 (racemic) | > 10 | – | > 10 | 2.1 | – |
| CCc1cc(CN2CCN(C)CC2)cc(NC(=O)c2ccc3c(c2)CN(c2cncnc2)CC3C)c1 (racemic) | > 10 | – | > 10 | – | – |
| CC1CN(c2cncnc2)Cc2cc(C(=O)Nc3cc(CN4CCN(C)CC4)cc(C4CC4)c3)ccc21 (racemic) | > 10 | – | 9.9 | – | – |
| CC1CN(c2cncnc2)Cc2cc(C(=O)Nc3cc(CN4CCSCC4)cc(C(F)(F)F)c3)ccc21 (racemic) | > 10 | – | > 10 | – | – |
| CC1CN(c2cncnc2)Cc2cc(C(=O)Nc3cc(CN4CCCC4)cc(C(F)(F)F)c3)ccc21 (racemic) | > 10 | – | > 10 | 2.6 | – |
| CC1CN(c2cncnc2)Cc2cc(C(=O)Nc3cc(CN4CCN(C)CC4)cc(-c4ccccc4)c3)ccc21 (racemic) | > 10 | – | 10 | – | – |
| CC1CN(c2cncnc2)Cc2cc(C(=O)Nc3cc(CN4CCCN(C)CC4)cc(C(F)(F)F)c3)ccc21 (racemic) | > 10 | – | > 10 | – | – |
| CC1CN(c2cncnc2)Cc2cc(C(=O)Nc3cc(CN4CCN(C)CC4)cc(C(C)(C)C)c3)ccc21 (racemic) | > 10 | – | 4.3 | – | – |
| CC1CN(c2cncnc2)Cc2cc(C(=O)Nc3cc(CN4CCN(C)CC4)cc(C4CCCCC4)c3)ccc21 (racemic) | > 10 | 0.123 | > 10 | – | – |
| CC1CN(c2cncnc2)Cc2cc(C(=O)Nc3cccc(CN4CCN(C)CC4)c3)ccc21 (racemic) | > 10 | > 10 | > 10 | > 10 | – |
| CC1CN(c2cncnc2)Cc2cc(C(=O)Nc3cccc(C(F)(F)F)c3)ccc21 (racemic) | > 10 | – | > 10 | – | – |
| CC1CN(c2cncnc2)Cc2cc(C(=O)Nc3cc(CN(C)C)cc(C(F)(F)F)c3)ccc21 (racemic) | > 10 | – | > 10 | – | – |
| CC1CN(c2cncnc2)Cc2cc(C(=O)Nc3cc(CN4CCN(C)CC4)cc(C(F)(F)F)c3)ccc21 (racemic) | > 10 | – | – | – | – |
| CC1CN(c2cncnc2)Cc2cc(C(=O)Nc3cc(CN4CCCCC4)cc(C(F)(F)F)c3)ccc21 (racemic) | > 10 | – | > 10 | – | – |
| CC1CN(c2cncnc2)Cc2cc(C(=O)Nc3ccc(CN4CCN(C)CC4)c(C(F)(F)F)c3)ccc21 (racemic) | > 10 | – | 0.547 | 0.354 | – |
| CC(C)c1cc(CN2CCN(C)CC2)cc(NC(=O)c2ccc3c(c2)CN(c2cncnc2)CC3C)c1 (racemic) | > 10 | 0.0499 | 8.7 | 0.682 | – |
| CC1Cc2ccc(C(=O)Nc3cc(CN4CCN(C)CC4)cc(C(F)(F)F)c3)cc2CN1c1cncnc1 (racemic) | > 10 | – | > 10 | – | – |
| CC1CN(c2cncnc2)Cc2cc(C(=O)Nc3cc(CCN4CCN(C)CC4)cc(C(F)(F)F)c3)ccc21 (racemic) | > 10 | 0.0807 | > 10 | 1.5 | – |
| CC1CN(c2cncnc2)Cc2cc(C(=O)Nc3cc(CN4CCN(C5CCCCC5)CC4)cc(C(F)(F)F)c3)ccc21 (racemic) | > 10 | – | > 10 | 0.846 | – |
| CC1CN(c2cncnc2)Cc2cc(NC(=O)Nc3cc(CN4CCN(C)CC4)cc(C(F)(F)F)c3)ccc21 (racemic) | > 10 | > 10 | > 10 | > 10 | – |

More lines, main results first:

| IC50 [1] [µM] | IC50 [2] [µM] | IC50 (Bcr/Abl fusion protein) [µM] | IC50 [3] [µM] | Compound | also measured |
| --- | --- | --- | --- | --- | --- |
| > 10 | 0.167 | > 10 | 2.6 | C[C@@H]1CN(c2cncnc2)Cc2cc(C(=O)Nc3cc(CN4CCCN(C)CC4)cc(C(F)(F)F)c3)ccc21 | – |
| > 10 | 10 | > 10 | > 10 | CC1CN(c2cncnc2)Cc2cc(C(=O)Nc3cc(C(F)(F)F)ccc3CN3CCN(C)CC3)ccc21 (stereo unspecified) | – |
| > 10 | – | – | – | C[C@H]1CN(c2cncnc2)Cc2cc(C(=O)Nc3cc(CN4CCN(C)CC4)cc(C(F)(F)F)c3)ccc21 | – |
| > 10 | – | > 10 | – | CN1CCN(Cc2cc(NC(=O)c3ccc4c(c3)CN(c3cncnc3)CC4(C)C)cc(C(F)(F)F)c2)CC1 | – |
| > 10 | 0.0711 | > 10 | 0.944 | CCN1CCN(Cc2cc(NC(=O)c3ccc4c(c3)CN(c3cncnc3)CC4C)cc(C(F)(F)F)c2)CC1 (stereo unspecified) | – |
| 2.5 | 0.0131 | 0.414 | 0.203 | CCc1ccc(C(=O)Nc2cc(CN3CCN(C)CC3)cc(C(F)(F)F)c2)cc1C#Cc1ccc2ccnn2c1 | – |
| > 10 | – | > 10 | – | CC1CN(c2cncnc2)Cc2cc(C(=O)Nc3cc(CN4CCOCC4)cc(C(F)(F)F)c3)ccc21 (stereo unspecified) | – |
| > 10 | > 10 | > 10 | > 10 | CN1CCN(Cc2cc(NC(=O)c3ccc4c(c3)CN(Cc3cncnc3)CC4)cc(C(F)(F)F)c2)CC1 | – |
| > 10 | – | – | – | CN1CCN(Cc2cc(NC(=O)c3ccc4c(c3)CN(c3cncnc3)CC4)cc(C(F)(F)F)c2)CC1 | – |
| > 10 | 0.0066 | 8.1 | 0.255 | C[C@H]1CN(c2cncnc2)Cc2cc(C(=O)Nc3cc(CN4CCCN(C)CC4)cc(C(F)(F)F)c3)ccc21 | Activity (Mus musculus [4]): Active; Activity [5]: Active; Activity (Mus musculus [6]): Active; Kd [7]: 0.0022 µM; inhibition (Peritoneal macrophage [8]): Dose-dependent effect; Activity (Mus musculus [9]): Dose-dependent effect; Activity (Mus musculus [10]): Dose-dependent effect; Activity [11]: Active; inhibition [12]: 99.9%; inhibition (Peritoneal macrophage [13]): Dose-dependent effect |

From ChEMBL document CHEMBL4041549, “Tetrahydroisoquinoline-7-carboxamide Derivatives as New Selective Discoidin Domain Receptor 1 (DDR1) Inhibitors” (ACS Med Chem Lett, 2017)
